Structures can show the parent of a compound that is named as a salt.
What was measured:
Bile salt export pump = Bile salt export pump (Homo sapiens, UniProt O95342); experiment: Inhibition of human BSEP overexpressed in Sf9 cell membrane vesicles assessed as uptake of [3H]-taurocholate in presence of ATP measured after 15 to 20 mins by membrane vesicle transport assay; type: ADME, cell-based
[1] = biological target: ATP-binding cassette sub-family C member 3 (Homo sapiens, UniProt O15438); experiment: Inhibition of human MRP3 overexpressed in Sf9 insect cell membrane vesicles assessed as uptake of [3H]-estradiol-17beta-D-glucuronide in presence of ATP and GSH measured after 10 mins by membrane vesicle transport assay; type: ADME, cell-based
[2] = biological target: ATP-binding cassette sub-family C member 2 (Homo sapiens, UniProt Q92887); experiment: Inhibition of human MRP2 overexpressed in Sf9 cell membrane vesicles assessed as uptake of [3H]-estradiol-17beta-D-glucuronide in presence of ATP and GSH measured after 20 mins by membrane vesicle transport assay
[3] = biological target: T1, ATP-binding cassette sub-family C member 4 (Homo sapiens, UniProt O15439); experiment: Inhibition of human MRP4 overexpressed in Sf9 cell membrane vesicles assessed as uptake of [3H]-estradiol-17beta-D-glucuronide in presence of ATP and GSH measured after 20 mins by membrane vesicle transport assay; type: ADME, cell-based
T1 sequence (O15439 whole entry): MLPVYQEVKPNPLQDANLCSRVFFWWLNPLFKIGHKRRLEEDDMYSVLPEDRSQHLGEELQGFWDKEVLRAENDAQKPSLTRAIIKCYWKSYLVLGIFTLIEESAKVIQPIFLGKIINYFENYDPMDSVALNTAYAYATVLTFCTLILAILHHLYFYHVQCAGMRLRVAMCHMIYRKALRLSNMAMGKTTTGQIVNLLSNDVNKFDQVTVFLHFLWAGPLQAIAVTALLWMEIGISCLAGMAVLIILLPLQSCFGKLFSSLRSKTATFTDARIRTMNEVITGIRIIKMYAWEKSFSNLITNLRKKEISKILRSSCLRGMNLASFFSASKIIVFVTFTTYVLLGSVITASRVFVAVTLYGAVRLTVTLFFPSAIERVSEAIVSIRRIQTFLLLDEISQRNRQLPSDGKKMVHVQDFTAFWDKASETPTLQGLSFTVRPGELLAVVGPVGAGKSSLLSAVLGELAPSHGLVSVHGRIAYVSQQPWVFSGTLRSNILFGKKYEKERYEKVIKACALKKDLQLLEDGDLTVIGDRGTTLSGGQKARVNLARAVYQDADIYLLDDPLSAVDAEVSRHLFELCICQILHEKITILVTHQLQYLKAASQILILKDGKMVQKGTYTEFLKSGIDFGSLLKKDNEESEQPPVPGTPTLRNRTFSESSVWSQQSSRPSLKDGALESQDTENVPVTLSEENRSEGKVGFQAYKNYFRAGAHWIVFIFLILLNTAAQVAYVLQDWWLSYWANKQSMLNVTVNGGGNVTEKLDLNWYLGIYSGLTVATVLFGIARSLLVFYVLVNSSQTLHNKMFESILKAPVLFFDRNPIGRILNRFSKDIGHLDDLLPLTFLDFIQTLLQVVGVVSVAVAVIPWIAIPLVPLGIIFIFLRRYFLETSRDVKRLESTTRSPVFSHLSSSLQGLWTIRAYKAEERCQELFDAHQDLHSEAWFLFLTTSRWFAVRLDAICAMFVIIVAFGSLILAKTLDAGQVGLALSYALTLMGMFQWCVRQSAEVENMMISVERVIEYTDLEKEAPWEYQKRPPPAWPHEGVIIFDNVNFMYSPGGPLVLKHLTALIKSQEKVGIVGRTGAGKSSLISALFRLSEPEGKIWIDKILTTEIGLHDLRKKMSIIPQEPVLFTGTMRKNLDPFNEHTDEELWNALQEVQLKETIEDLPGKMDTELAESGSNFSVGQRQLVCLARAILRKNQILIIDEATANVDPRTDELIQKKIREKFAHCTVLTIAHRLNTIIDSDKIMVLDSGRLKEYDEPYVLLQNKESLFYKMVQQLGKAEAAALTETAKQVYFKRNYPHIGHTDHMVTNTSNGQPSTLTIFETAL

Sequence of ATP-binding cassette sub-family C member 3 (O15438 whole entry): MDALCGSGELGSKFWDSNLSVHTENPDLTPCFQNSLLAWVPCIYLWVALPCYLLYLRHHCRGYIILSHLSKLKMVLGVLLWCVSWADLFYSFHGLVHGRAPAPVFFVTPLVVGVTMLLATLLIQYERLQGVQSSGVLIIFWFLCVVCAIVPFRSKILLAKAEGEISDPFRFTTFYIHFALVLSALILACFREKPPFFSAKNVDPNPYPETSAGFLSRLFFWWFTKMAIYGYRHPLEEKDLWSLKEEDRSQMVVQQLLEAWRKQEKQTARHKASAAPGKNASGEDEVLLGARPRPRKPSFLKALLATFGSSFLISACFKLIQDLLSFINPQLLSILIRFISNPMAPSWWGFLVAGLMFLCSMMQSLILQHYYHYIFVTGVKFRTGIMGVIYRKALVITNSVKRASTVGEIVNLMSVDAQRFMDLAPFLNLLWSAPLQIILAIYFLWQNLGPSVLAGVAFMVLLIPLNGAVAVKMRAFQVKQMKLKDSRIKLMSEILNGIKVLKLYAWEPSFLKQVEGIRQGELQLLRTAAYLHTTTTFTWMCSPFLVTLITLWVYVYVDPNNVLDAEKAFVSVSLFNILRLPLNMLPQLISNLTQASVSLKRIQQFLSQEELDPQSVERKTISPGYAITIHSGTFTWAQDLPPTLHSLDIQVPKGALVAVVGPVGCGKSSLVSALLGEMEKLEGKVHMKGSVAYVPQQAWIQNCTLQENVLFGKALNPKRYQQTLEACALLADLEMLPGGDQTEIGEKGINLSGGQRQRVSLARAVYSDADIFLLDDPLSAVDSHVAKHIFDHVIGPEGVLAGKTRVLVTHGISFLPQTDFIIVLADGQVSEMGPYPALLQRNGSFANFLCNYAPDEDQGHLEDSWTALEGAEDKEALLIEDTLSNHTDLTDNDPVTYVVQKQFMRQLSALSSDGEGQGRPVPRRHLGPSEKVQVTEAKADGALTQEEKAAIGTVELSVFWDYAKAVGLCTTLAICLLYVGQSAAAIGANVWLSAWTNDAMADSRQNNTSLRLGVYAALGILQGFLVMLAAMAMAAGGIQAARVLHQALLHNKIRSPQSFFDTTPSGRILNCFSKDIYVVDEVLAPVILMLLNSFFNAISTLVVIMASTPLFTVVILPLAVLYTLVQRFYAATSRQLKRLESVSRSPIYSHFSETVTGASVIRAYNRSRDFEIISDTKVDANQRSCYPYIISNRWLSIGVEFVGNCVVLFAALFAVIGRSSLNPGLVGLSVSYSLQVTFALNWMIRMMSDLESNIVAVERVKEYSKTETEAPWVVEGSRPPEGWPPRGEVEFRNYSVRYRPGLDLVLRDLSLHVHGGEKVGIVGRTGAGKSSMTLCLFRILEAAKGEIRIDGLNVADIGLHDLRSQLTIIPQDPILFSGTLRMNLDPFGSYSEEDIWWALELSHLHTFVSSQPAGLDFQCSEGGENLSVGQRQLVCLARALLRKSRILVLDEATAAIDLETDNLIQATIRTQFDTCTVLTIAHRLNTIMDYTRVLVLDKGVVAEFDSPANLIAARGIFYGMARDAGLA
Sequence of ATP-binding cassette sub-family C member 2 (Q92887 whole entry): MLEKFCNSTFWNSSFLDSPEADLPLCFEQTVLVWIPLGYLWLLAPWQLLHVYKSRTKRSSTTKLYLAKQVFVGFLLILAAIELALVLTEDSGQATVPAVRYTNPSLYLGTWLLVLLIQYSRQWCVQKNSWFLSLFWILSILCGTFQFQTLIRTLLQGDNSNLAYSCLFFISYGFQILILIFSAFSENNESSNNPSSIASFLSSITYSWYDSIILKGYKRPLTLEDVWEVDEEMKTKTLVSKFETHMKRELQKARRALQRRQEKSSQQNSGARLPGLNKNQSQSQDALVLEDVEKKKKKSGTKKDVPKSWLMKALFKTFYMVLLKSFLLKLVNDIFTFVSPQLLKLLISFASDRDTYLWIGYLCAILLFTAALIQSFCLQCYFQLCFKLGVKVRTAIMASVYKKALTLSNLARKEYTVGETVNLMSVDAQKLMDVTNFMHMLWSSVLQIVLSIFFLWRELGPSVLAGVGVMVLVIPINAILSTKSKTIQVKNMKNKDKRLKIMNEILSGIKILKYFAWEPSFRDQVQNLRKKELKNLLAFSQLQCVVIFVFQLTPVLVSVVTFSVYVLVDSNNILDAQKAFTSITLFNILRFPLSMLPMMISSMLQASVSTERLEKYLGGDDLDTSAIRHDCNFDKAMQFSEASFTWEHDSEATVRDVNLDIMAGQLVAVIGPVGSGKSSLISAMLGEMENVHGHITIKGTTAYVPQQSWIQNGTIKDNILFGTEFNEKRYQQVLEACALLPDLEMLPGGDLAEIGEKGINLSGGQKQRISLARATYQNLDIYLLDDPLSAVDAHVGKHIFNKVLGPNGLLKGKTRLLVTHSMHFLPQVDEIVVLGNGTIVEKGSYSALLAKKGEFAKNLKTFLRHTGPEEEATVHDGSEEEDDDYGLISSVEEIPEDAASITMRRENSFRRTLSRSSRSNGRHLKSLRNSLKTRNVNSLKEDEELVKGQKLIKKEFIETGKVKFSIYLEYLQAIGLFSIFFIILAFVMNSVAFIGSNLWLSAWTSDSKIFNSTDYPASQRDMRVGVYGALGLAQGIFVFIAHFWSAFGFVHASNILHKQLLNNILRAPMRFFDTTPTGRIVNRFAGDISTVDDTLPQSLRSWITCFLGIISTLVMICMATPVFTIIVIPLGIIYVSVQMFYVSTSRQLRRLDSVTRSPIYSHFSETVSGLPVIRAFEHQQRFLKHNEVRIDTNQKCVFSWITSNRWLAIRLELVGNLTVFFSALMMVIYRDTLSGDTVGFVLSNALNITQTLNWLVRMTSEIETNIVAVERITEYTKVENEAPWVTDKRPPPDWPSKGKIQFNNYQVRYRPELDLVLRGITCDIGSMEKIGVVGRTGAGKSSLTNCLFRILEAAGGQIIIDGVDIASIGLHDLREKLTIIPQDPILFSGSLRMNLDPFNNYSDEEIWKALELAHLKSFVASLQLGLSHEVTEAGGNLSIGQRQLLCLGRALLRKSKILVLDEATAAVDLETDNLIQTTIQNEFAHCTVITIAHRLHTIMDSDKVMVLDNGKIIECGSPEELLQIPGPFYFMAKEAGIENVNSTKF
Sequence of Bile salt export pump (O95342 whole entry): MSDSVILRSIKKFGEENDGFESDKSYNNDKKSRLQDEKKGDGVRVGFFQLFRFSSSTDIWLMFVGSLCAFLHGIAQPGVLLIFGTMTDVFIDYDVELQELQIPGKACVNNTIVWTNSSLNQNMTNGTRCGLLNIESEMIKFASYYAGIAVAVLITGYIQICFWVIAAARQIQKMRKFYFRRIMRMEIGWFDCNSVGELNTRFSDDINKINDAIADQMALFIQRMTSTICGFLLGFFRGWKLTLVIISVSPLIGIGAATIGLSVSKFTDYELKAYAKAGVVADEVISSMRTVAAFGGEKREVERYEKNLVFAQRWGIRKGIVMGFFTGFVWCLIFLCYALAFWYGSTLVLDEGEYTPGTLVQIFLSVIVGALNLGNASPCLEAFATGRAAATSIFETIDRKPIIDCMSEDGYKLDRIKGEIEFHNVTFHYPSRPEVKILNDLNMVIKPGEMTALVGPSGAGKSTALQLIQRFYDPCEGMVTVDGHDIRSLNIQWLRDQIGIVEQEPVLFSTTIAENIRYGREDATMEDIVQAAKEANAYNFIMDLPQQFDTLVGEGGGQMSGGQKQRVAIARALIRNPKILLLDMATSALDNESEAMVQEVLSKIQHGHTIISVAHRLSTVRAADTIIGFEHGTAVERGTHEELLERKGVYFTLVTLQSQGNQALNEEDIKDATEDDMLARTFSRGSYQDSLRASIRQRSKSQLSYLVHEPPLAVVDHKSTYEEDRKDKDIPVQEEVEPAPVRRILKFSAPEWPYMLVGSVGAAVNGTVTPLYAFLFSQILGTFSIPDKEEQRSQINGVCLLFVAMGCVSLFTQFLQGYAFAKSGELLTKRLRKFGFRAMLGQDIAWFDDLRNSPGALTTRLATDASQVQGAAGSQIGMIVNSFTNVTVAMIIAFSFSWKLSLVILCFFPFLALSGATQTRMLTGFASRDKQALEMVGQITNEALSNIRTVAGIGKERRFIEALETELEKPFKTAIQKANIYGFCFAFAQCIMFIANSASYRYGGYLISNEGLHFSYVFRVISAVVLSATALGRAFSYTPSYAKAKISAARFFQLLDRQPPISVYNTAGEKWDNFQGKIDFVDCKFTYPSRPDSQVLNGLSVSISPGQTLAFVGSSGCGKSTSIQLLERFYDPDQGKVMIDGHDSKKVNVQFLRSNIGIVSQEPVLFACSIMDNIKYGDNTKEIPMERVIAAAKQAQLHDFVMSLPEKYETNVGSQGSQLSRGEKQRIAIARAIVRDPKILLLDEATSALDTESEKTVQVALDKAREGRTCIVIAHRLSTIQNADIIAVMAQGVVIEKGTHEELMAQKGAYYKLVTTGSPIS

SMILES	IC50 (Bile salt export pump) [µM]	IC50 [1] [µM]	IC50 [2] [µM]	IC50 [3] [µM]
N[C@@H](Cc1ccc(N(CCCl)CCCl)cc1)C(=O)O	> 133	> 133	> 133	> 133
Oc1ccc(C2CNCCc3c2cc(O)c(O)c3Cl)cc1 (stereo unspecified) [FENOLDOPAM MESYLATE]	> 133	> 133	> 133	> 133
CCCN(CCC)S(=O)(=O)c1ccc(C(=O)O)cc1 [PROBENECID]	> 133	> 133	> 133	> 133
Cc1nc2ccc(CN(C)c3ccc(C(=O)N[C@@H](CCC(=O)O)C(=O)O)s3)cc2c(=O)[nH]1 [RALTITREXED]	> 133	> 133	> 133	> 133
CC(C)(C)c1ccc(C(O)CCCN2CCC(C(O)(c3ccccc3)c3ccccc3)CC2)cc1 (stereo unspecified) [TERFENADINE]	> 133	> 133	> 133	> 133
CC1(C)S[C@@H]2[C@H](NC(=O)[C@H](NC(=O)N3CCNC3=O)c3ccccc3)C(=O)N2[C@H]1C(=O)O [AZLOCILLIN SODIUM]	> 133	> 133	> 133	> 133
Nc1nc(N)c2nc(-c3ccccc3)c(N)nc2n1	> 133	> 133	> 133	> 133
CC(C)(C)NC[C@H](O)COc1nsnc1N1CCOCC1 [TIMOLOL]	> 133	> 133	> 133	> 133
O=C(Cn1ccnc1[N+](=O)[O-])NCc1ccccc1 [BENZNIDAZOLE]	> 133	> 133	> 133	> 133
CS(=O)(=O)N1CCN(Cc2cc3nc(-c4cccc5[nH]ncc45)nc(N4CCOCC4)c3s2)CC1	15.2	> 133	> 133	2.7
NC(=O)N1c2ccccc2C=Cc2ccccc21 [CARBAMAZEPINE]	> 133	> 133	> 133	> 133
Nc1cccc2c1CN(C1CCC(=O)NC1=O)C2=O (stereo unspecified) [LENALIDOMIDE]	> 133	> 133	> 133	> 133
O=c1c(O)c(-c2ccc(O)c(O)c2)oc2cc(O)cc(O)c12 [QUERCETIN]	> 133	> 133	> 133	20.8
C/C(=C\C(=O)OCCCCCCCCC(=O)O)C[C@@H]1OC[C@H](C[C@@H]2O[C@H]2[C@@H](C)[C@H](C)O)[C@@H](O)[C@H]1O [MUPIROCIN]	> 133	> 133	> 133	> 133
Cc1cccc(Nc2cc(Cl)nc(SCC(=O)O)n2)c1C [PIRINIXIC ACID]	99	> 133	> 133	44.9
CCC1(C)CC(=O)NC1=O (stereo unspecified) [ETHOSUXIMIDE]	> 133	> 133	> 133	> 133
Nc1nc(=O)[nH]cc1F [FLUCYTOSINE]	> 133	> 133	> 133	> 133
CCOc1cc2ncc(C#N)c(Nc3ccc(OCc4ccccn4)c(Cl)c3)c2cc1NC(=O)/C=C/CN(C)C [NERATINIB]	25	> 133	> 133	23
CCC(=O)NCC[C@@H]1CCc2ccc3c(c21)CCO3 [RAMELTEON]	> 133	> 133	> 133	> 133

Reference: ChEMBL document CHEMBL4028801, “A multifactorial approach to hepatobiliary transporter assessment enables improved therapeutic compound development” (Toxicol Sci, 2013)
